Results reported in ChEMBL document CHEMBL5030558, “Optimization and Evaluation of Novel Antifungal Agents for the Treatment of Fungal Infection” (J Med Chem, 2021).
Active and inactive are the calls of the source. No cut-off for these calls is given here.

Legend:
Trichophyton rubrum [1] = test: Fungicidal activity against Trichophyton rubrum KCCM60450 at 4 ug/ml by time-kill kinetics assay; assay type: functional, organism-based; details: dose 4.0 µg/ml
[2] = AUC(0 to t) in Sprague-Dawley rat at 10 mg/kg, po; assay type: ADME, organism-based; set-up: dose 10 mg/kg; details: in vivo
HEK293 = test: Cytotoxicity against human HEK293 cells upto 12.5 uM incubated for 24 hrs; assay type: cell-based; details: hek293, 24 h
Trichophyton rubrum [3] = test: Ex vivo antifungal activity against Trichophyton rubrum KCCM60450 infected in human nail assessed as reduction in ATP level at 5 % w/w after 24 hrs; assay type: functional; set-up: scale not given: the % may be the effect or the level left
Nakaseomyces glabratus = test: Synergistic antifungal activity against Candida glabrata BG2 assessed as FICI in presence of ICZ after 48 hrs by checker board assay; assay type: functional, organism-based
Candida albicans [4] = test: Synergistic antifungal activity against Candida albicans ATCC SC5314 assessed as FICI in presence of AmB after 48 hrs by checker board assay; assay type: functional, organism-based
Cryptococcus neoformans [5] = test: Additive antifungal activity against Cryptococcus neoformans H99 assessed as FICI in presence of FCZ after 48 hrs by checker board assay; assay type: functional, organism-based
[Candida] auris [6] = Additive antifungal activity against Candida auris B8841 assessed as assessed as FICI in presence of CSP after 48 hrs by checker board assay; assay type: functional, organism-based; details: Candidozyma auris
Candida albicans [7] = test: Induction of morphological changes in Candida albicans ATCC SC5314 assessed as appearance of detached cytoplasm at 32 ug/ml incubated for 24 hrs by TEM analysis; assay type: functional, organism-based; details: dose 32.0 µg/ml
Trichophyton rubrum [8] = test: Ex vivo antifungal activity against Trichophyton rubrum KCCM60450 infected in human nail assessed as reduction in ATP level at 0.1 % w/w after 24 hrs; assay type: functional; set-up: scale not given: the % may be the effect or the level left
Cryptococcus neoformans [9] = test: Antifungal activity against Cryptococcus neoformans H99 assessed as reduction in fungal growth incubated for 72 hrs by CLSI based broth microdilution method; assay type: functional
[10] = Stability in human liver microsomes assessed as parent compound remaining after 30 mins; assay type: ADME, Microsome; details: read-out: Stability
Cytochrome P450 2C19 = Cytochrome P450 2C19 (Homo sapiens, UniProt P33261); test: Inhibition of CYP2C19 (unknown origin) relative to control; assay type: ADME
Cytochrome P450 2C19, sequence (P33261 whole entry): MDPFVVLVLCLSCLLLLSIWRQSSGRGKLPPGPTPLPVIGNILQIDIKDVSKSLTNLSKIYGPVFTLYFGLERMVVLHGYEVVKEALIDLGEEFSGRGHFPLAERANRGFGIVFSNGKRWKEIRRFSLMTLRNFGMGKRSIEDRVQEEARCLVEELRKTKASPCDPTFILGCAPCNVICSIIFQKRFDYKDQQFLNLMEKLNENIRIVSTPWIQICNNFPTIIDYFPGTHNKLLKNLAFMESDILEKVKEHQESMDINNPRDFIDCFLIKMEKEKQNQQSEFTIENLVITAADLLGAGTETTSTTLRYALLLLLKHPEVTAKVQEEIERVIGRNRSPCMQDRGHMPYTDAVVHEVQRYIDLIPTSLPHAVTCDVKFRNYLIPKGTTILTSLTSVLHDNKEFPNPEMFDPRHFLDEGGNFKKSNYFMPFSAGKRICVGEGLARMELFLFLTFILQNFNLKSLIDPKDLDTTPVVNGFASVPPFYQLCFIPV

[11] = Effective permeability by PAMPA method; assay type: ADME; details: read-out: Peff
[12] = Effect on cell wall integrity in Cryptococcus neoformans H99 assessed as activation of Mpk1 by measuring increase in Mpk1 phosphorylation ratio at 8 ug/ml after 60 mins by immunoblot analysis (reference value: 1); assay type: functional; details: dose 8 µg/ml, 1 h
[13] = Effect on cell wall integrity in Cryptococcus neoformans H99 assessed as activation of Mpk1 by measuring increase in Mpk1 phosphorylation ratio at 8 ug/ml after 90 mins by immunoblot analysis (reference value: 1); assay type: functional; details: dose 8 µg/ml, 1.5 h
[14] = Stability in rabbit hepatocytes assessed as parent compound remaining incubated for 60 mins; assay type: ADME, cell-based, Oryctolagus cuniculus, Hepatocyte; details: read-out: Stability
[15] = Stability in human hepatocytes assessed as parent compound remaining incubated for 60 mins; assay type: ADME, cell-based, Hepatocyte; details: read-out: Stability
[Candida] auris [16] = Synergistic antifungal activity against Candida auris B8841 assessed as FICI in presence of ICZ after 48 hrs by checker board assay; assay type: functional, organism-based; details: Candidozyma auris
Cryptococcus neoformans [17] = test: Induction of morphological changes in Cryptococcus neoformans H99 assessed as reduction in cell wall thickness at 4 to 8 ug/ml incubated for 24 hrs by TEM analysis; assay type: functional, organism-based; details: dose 4-8 µg/ml
Candida albicans [18] = test: In vivo antifungal activity against Candida albicans 90028 infected in BALB/c mouse assessed as appearance of soft epidermal stratum corneum measured upto 48 hrs post infection by histopathological analysis; assay type: functional, organism-based; details: time hrs <=48
[19] = Stability in rat plasma assessed as parent compound remaining after 30 to 120 mins; assay type: ADME, cell-free; details: time 30-120 min
[20] = AUC(0 to t) in dog at 10 mg/kg, po; assay type: ADME, organism-based, Canis lupus familiaris; set-up: dose 10 mg/kg; details: in vivo
Candida albicans [21] = test: Synergistic antifungal activity against Candida albicans ATCC SC5314 assessed as FICI in presence of ICZ after 48 hrs by checker board assay; assay type: functional, organism-based
Cryptococcus neoformans [22] = test: Fungicidal activity against Cryptococcus neoformans H99 at 8 times of MIC after 2 hrs by time-kill kinetics assay; assay type: functional, organism-based
Aspergillus fumigatus = test: Synergistic antifungal activity against Aspergillus fumigatus AF293 assessed as FICI in presence of ICZ after 48 hrs by checker board assay; assay type: functional, organism-based
[23] = Toxicity in Sprague-Dawley rat assessed as death at 500 to 1000 mg/kg, po measured after 14 days; assay type: organism-based; details: in vivo, 336 h, dose 500-1000 mg/kg, time 14 day
Cryptococcus neoformans [24] = test: Effect on cell wall integrity in Cryptococcus neoformans XW252 cotransfected with mCherry-Nop1-Gfp mutant assessed as increase in nuclear translocation of Crz1 at 8 ug/ml after 90 mins by fluorescence microscopic analysis; assay type: functional; details: dose 8.0 µg/ml
Trichophyton rubrum [25] = test: Fungicidal activity against Trichophyton rubrum KCCM60450 at 4 times after 2 hrs by time-kill kinetics assay; assay type: functional, organism-based
Candida albicans [26] = test: Induction of morphological changes in Candida albicans ATCC SC5314 assessed as reduction in cell wall thickness at 32 ug/ml incubated for 24 hrs by TEM analysis; assay type: functional, organism-based; details: dose 32.0 µg/ml
[27] = AUC(0 to t) in Sprague-Dawley rat at 2 mg/kg, iv; assay type: ADME, organism-based; set-up: dose 2 mg/kg; details: in vivo
Trichophyton rubrum [28] = test: Ex vivo antifungal activity against Trichophyton rubrum KCCM60450 infected in human nail assessed as reduction in ATP level at 0.5 % w/w after 24 hrs; assay type: functional; set-up: scale not given: the % may be the effect or the level left
[29] = Toxicity in Sprague-Dawley rat assessed as body weight gain at 500 to 1000 mg/kg, po measured after 3 days; assay type: organism-based; details: in vivo, 72 h, dose 500-1000 mg/kg, time 3 day
[30] = Cmax in Sprague-Dawley rat at 10 mg/kg, po; assay type: ADME, organism-based; set-up: route oral, dose 10 mg/kg; details: in vivo
Cytochrome P450 3A4 = Cytochrome P450 3A4 (Homo sapiens, UniProt P08684); test: Inhibition of CYP3A4 (unknown origin) relative to control; assay type: ADME
Cytochrome P450 3A4, sequence (P08684 whole entry): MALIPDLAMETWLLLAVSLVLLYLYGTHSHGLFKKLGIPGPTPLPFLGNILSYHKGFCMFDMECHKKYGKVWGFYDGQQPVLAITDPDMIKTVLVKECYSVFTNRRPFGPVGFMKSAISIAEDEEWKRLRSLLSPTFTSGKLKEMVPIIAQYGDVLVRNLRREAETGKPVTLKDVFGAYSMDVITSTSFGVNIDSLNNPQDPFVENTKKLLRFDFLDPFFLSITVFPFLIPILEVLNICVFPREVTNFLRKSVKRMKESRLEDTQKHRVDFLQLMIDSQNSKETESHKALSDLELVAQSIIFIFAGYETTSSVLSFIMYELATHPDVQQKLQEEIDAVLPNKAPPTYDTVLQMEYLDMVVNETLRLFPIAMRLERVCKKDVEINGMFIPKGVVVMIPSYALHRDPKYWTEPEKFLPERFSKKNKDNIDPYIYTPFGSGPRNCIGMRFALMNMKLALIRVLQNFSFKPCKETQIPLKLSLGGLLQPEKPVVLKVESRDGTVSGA

[31] = AUC(0 to t) in dog at 1 mg/kg, iv; assay type: ADME, organism-based, Canis lupus familiaris; set-up: dose 1 mg/kg; details: in vivo
Cryptococcus neoformans [32] = test: Induction of morphological changes in Cryptococcus neoformans H99 assessed as cell wall damage at 4 to 8 ug/ml incubated for 24 hrs by TEM analysis; assay type: functional, organism-based; details: dose 4-8 µg/ml
[33] = Stability in human plasma assessed as parent compound remaining after 30 to 120 mins; assay type: ADME, cell-free; details: time 30-120 min
Cryptococcus neoformans [34] = test: Synergistic antifungal activity against Cryptococcus neoformans XW252 in presence of FK506 by checkboard assay; assay type: functional, organism-based
[35] = Effect on cell wall integrity in Cryptococcus neoformans H99 assessed as increase in HXL1 activation ratio at 8 ug/ml after 2 hrs by immunoblot analysis (reference value: 1); assay type: functional; details: dose 8 µg/ml
[36] = target: Voltage-gated inwardly rectifying potassium channel KCNH2 (Homo sapiens, UniProt Q12809); test: Inhibition of human ERG by patch clamp assay
Voltage-gated inwardly rectifying potassium channel KCNH2, sequence (Q12809 whole entry): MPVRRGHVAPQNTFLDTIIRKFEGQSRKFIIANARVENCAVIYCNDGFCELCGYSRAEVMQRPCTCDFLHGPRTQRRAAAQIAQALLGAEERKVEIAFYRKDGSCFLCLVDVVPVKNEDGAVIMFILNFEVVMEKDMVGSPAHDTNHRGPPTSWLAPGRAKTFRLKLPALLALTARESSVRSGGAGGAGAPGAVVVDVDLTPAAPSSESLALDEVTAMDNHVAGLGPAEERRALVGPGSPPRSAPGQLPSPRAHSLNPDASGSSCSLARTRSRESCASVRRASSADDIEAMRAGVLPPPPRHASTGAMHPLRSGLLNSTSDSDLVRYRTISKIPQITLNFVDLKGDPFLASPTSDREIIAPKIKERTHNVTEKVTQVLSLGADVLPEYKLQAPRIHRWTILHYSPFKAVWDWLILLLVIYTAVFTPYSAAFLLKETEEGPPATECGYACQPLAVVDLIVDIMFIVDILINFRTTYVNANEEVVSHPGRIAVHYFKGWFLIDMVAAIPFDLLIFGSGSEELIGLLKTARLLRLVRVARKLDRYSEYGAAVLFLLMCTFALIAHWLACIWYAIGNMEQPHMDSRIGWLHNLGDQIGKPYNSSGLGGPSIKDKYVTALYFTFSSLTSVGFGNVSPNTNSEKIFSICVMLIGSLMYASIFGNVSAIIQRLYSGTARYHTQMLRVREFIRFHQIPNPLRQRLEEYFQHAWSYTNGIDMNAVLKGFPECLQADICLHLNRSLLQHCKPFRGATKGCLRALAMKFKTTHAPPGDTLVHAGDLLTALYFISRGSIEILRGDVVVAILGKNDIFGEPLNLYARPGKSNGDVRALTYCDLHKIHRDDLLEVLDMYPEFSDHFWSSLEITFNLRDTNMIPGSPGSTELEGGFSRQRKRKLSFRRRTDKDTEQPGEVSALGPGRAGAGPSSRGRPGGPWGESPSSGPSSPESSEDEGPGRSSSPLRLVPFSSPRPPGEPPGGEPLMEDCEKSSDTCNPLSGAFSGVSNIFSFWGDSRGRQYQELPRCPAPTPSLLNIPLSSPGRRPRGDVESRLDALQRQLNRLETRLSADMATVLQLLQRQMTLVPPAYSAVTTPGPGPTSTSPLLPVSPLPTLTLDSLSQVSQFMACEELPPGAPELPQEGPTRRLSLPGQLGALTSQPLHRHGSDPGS

Cytochrome P450 2C9 = Cytochrome P450 2C9 (Homo sapiens, UniProt P11712); test: Inhibition of CYP2C9 (unknown origin) relative to control; assay type: ADME
Cytochrome P450 2C9, sequence (P11712 whole entry): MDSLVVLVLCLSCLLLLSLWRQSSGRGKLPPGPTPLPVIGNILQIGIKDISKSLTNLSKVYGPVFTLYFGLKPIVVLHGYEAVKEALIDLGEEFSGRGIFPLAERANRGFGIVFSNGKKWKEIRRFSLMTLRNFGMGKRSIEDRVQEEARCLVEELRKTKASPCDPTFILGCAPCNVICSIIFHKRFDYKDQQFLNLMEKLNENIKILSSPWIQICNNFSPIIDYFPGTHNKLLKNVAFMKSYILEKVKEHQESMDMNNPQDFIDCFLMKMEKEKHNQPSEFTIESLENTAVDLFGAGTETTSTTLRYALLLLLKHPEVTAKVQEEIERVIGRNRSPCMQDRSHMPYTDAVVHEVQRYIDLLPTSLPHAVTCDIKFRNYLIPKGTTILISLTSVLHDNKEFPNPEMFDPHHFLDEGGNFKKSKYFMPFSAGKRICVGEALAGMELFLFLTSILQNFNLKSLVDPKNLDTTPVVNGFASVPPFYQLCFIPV

Trichophyton rubrum [37] = test: Ex vivo antifungal activity against Trichophyton rubrum KCCM60450 infected in human nail assessed as reduction in ATP level at 1 % w/w after 24 hrs; assay type: functional; set-up: scale not given: the % may be the effect or the level left
[38] = Stability in minipig hepatocytes assessed as parent compound remaining incubated for 60 mins; assay type: ADME, cell-based, Sus scrofa domesticus, Liver; details: pig, read-out: Stability

CCCC(N)C(=O)NCCc1ccc(-c2ccc(Cl)c(Cl)c2)cc1.Cl (racemic)
Activity (Trichophyton rubrum [1]): Active | AUC(0-t) [2]: 527 ng·h/mL | Activity (HEK293): Non-Toxic | Activity (Trichophyton rubrum [3]): 19.92% | Activity (Nakaseomyces glabratus): inactive | Activity (Candida albicans [4]): Active | Activity (Cryptococcus neoformans [5]): Active | Activity ([Candida] auris [6]): Active | Activity (Candida albicans [7]): Active | Activity (Trichophyton rubrum [8]): 73.02% | MIC (Cryptococcus neoformans [9]): 1 µg/mL | remaining at 0.5 h [10]: 90% | inhibition (INH) (Cytochrome P450 2C19): 86% | Papp [11]: 58.9 ×10⁻⁶ cm/s | Ratio [12]: 3.62 | Ratio [13]: 3.32 | remaining at 1 h [14]: 64.6% | remaining at 1 h [15]: 79.1% | Activity ([Candida] auris [16]): inactive | Activity (Cryptococcus neoformans [17]): Active | Activity (Candida albicans [18]): Active | Stability [19]: 96.2% | AUC(0-t) [20]: 30500 ng·h/mL | Activity (Candida albicans [21]): inactive | Activity (Cryptococcus neoformans [22]): Active | Activity (Aspergillus fumigatus): Active | Activity [23]: Non-Toxic | Activity (Cryptococcus neoformans [24]): Active | Activity (Trichophyton rubrum [25]): Active | Activity (Candida albicans [26]): Active | AUC(0-t) [27]: 265 ng·h/mL | Activity (Trichophyton rubrum [28]): 32.72% | Activity [29]: Non-Toxic | Cmax [30]: 97.3 ng/mL | inhibition (INH) (Cytochrome P450 3A4): 43.7% | AUC(0-t) [31]: 2680 ng·h/mL | Activity (Cryptococcus neoformans [32]): Active | Stability [33]: 97% | Activity (Cryptococcus neoformans [34]): Active | Ratio [35]: 1.57 | IC50 [36]: 39.5 µM | inhibition (INH) (Cytochrome P450 2C9): 77.3% | Activity (Trichophyton rubrum [37]): 24.68% | remaining at 1 h [38]: 49.6%
